PubChem BioAssay AID248 (DTP/NCI, 2004)
Several values for one entry are separate records, joined by “and”; a condition that tells them apart may be missing. Equal entries are not always repeated. Inconclusive results and toxic doses are left out. No stated cut-off is given here; in the data, active means T/C of 150% or more; inactive means T/C below 125%.

Tested on: L1210 leukemia ip in BDF1 mice, survival T/C
Experiment: NCI In Vivo Anticancer Drug Screen. Data for tumor model L1210 Leukemia (intraperitoneal) in B6D2F1 (BDF1) mice
Details: endpoint: mean survival time, higher = longer survival
Procedure, shortened: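 Value reflects the ratio of survival in compound-treated mice to survival in vehicle-treated controls, with both groups carrying the same transplanted tumor.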

[1] = dose: 100.0 mg/kg/injection, schedule: Q04DX003 (ip), vehicle: Klucel (hydroxypropylcellulose) (HPC)
[2] = dose: 200.0 mg/kg/injection, schedule: Q04DX003 (ip), vehicle: Klucel (hydroxypropylcellulose) (HPC)
[3] = dose: 400.0 mg/kg/injection, schedule: Q04DX003 (ip), vehicle: Klucel (hydroxypropylcellulose) (HPC)
[4] = dose: 100.0 mg/kg/injection, schedule: Q01DX001 (ip), vehicle: saline
[5] = dose: 100.0 mg/kg/injection, schedule: Q04DX003 (ip), vehicle: acetone
[6] = dose: 200.0 mg/kg/injection, schedule: Q01DX001 (ip), vehicle: saline
[7] = dose: 200.0 mg/kg/injection, schedule: Q04DX003 (ip), vehicle: acetone
[8] = dose: 400.0 mg/kg/injection, schedule: Q01DX001 (ip), vehicle: saline
[9] = dose: 100.0 mg/kg/injection, schedule: Q01DX001 (ip), vehicle: carboxymethylcellulose (CMC)
[10] = dose: 200.0 mg/kg/injection, schedule: Q01DX001 (ip), vehicle: carboxymethylcellulose (CMC)
[11] = dose: 400.0 mg/kg/injection, schedule: Q01DX001 (ip), vehicle: carboxymethylcellulose (CMC)
[12] = dose: 100.0 mg/kg/injection, schedule: Q04DX002 (ip), vehicle: saline with Tween-80
[13] = dose: 200.0 mg/kg/injection, schedule: Q04DX002 (ip), vehicle: saline with Tween-80
[14] = dose: 400.0 mg/kg/injection, schedule: Q04DX002 (ip), vehicle: saline with Tween-80
[15] = dose: 100.0 mg/kg/injection, schedule: Q01DX009 (ip), vehicle: Klucel (hydroxypropylcellulose) (HPC)
[16] = dose: 200.0 mg/kg/injection, schedule: Q01DX009 (ip), vehicle: Klucel (hydroxypropylcellulose) (HPC)
[17] = dose: 400.0 mg/kg/injection, schedule: Q01DX009 (ip), vehicle: Klucel (hydroxypropylcellulose) (HPC)

Measured: T/C

ClCC1=Nc2c(Cl)ncnc2NN1
inactive: dose: 6.25 mg/kg/injection, schedule: Q04DX003 (ip), vehicle: saline with Tween-80 94 % of control | dose: 12.5 mg/kg/injection, schedule: Q04DX003 (ip), vehicle: saline with Tween-80 96 % of control | dose: 25.0 mg/kg/injection, schedule: Q01DX001 (ip), vehicle: saline with Tween-80 95 % of control | dose: 25.0 mg/kg/injection, schedule: Q04DX003 (ip), vehicle: saline with Tween-80 91 % of control

CN(C)c1ccc(NC(=S)Nc2ccc(N(C)C)cc2)cc1
inactive: dose: 400.0 mg/kg/injection, schedule: Q01DX001 (ip), vehicle: saline with Tween-80 88 % of control

O=C(Nc1cccc2ccccc12)NC1CC1
inactive: dose: 100.0 mg/kg/injection, schedule: Q01DX009 (ip), vehicle: other 94 % of control | dose: 100.0 mg/kg/injection, schedule: Q04DX003 (ip), vehicle: other 97 % of control | dose: 200.0 mg/kg/injection, schedule: Q01DX009 (ip), vehicle: other 94 % of control | dose: 200.0 mg/kg/injection, schedule: Q04DX003 (ip), vehicle: other 96 % of control | dose: 400.0 mg/kg/injection, schedule: Q01DX009 (ip), vehicle: other 94 % of control | dose: 400.0 mg/kg/injection, schedule: Q04DX003 (ip), vehicle: other 87 % of control

O=C(C=C(C(F)(F)F)C(F)(F)F)c1cccc(S(=O)(=O)F)c1
inactive: dose: 3.13 mg/kg/injection, schedule: Q01DX009 (ip), vehicle: saline with Tween-80 96 % of control | dose: 6.25 mg/kg/injection, schedule: Q01DX009 (ip), vehicle: saline with Tween-80 100 % of control | dose: 12.5 mg/kg/injection, schedule: Q01DX009 (ip), vehicle: saline with Tween-80 95 % of control

O=C(Nc1ccc(F)c([N+](=O)[O-])c1)Nc1cc([N+](=O)[O-])ccc1F
inactive: [1] 96 % of control | [2] 93 % of control | [3] 101 % of control

CCCCCCCCCCCCCCCCc1ccc(CCCC(=O)O)cc1
inactive: [1] 91 % of control | [2] 92 % of control | [3] 91 % of control

C=C/C=C\N(CC)CC
inactive: dose: 6.25 mg/kg/injection, schedule: Q01DX009 (ip), vehicle: water 98 % of control | dose: 12.5 mg/kg/injection, schedule: Q01DX009 (ip), vehicle: water 97 % of control | dose: 25.0 mg/kg/injection, schedule: Q01DX009 (ip), vehicle: water 104 % of control | dose: 25.0 mg/kg/injection, schedule: Q04DX003 (ip), vehicle: water 95 % of control | dose: 50.0 mg/kg/injection, schedule: Q01DX009 (ip), vehicle: water 98 % of control | dose: 50.0 mg/kg/injection, schedule: Q04DX003 (ip), vehicle: water 88 % of control | dose: 100.0 mg/kg/injection, schedule: Q04DX003 (ip), vehicle: water 100 % of control

CC(=O)OC1=CC2(OC(C)=O)CCC1C1C(=O)OC(=O)C12 (stereo unspecified)
inactive: [4] 102 % of control | [5] 93 % of control | [6] 91 % of control | [7] 96 % of control | [8] 90 % of control

Nc1cc2c(cc1Br)-c1ccc([N+](=O)[O-])cc1/C2=N\O
inactive: [9] 113 % of control | [10] 103 % of control | [11] 97 % of control

CO[C@H]1C[C@H](O[C@H]2CC[C@]3(C=O)[C@H]4CC[C@]5(C)[C@@H](C6=CC(=O)OC6)CC[C@]5(O)[C@@H]4CC[C@]3(O)C2)O[C@H](C)[C@H]1O[C@@H]1O[C@H](CO[C@@H]2O[C@H](CO)[C@@H](O)[C@H](O)[C@H]2O)[C@@H](O)[C@H](O)[C@H]1O
inactive: dose: 0.25 mg/kg/injection, schedule: Q01DX001 (sc), vehicle: steriod suspending solution 98 % of control | dose: 0.5 mg/kg/injection, schedule: Q01DX001 (sc), vehicle: steriod suspending solution 96 % of control | dose: 1.0 mg/kg/injection, schedule: Q01DX001 (sc), vehicle: steriod suspending solution 98 % of control | dose: 2.0 mg/kg/injection, schedule: Q01DX001 (sc), vehicle: steriod suspending solution 98 % of control

CCOP(=S)(N/N=C1/C2(C)CCC(C2)C1(C)C)OCC (stereo unspecified)
inactive: [4] 97 % of control | [6] 97 % of control | [8] 91 % of control

Clc1ccc2c(c1)Sc1ccccc1O2
inactive: [12] 101 % of control | [13] 101 % of control | [14] 97 % of control

O=C(c1ccc(Cl)cc1)c1cccc[n+]1Cc1ccccc1
inactive: dose: 12.5 mg/kg/injection, schedule: Q04DX003 (ip), vehicle: Klucel (hydroxypropylcellulose) (HPC) 102 % of control | dose: 25.0 mg/kg/injection, schedule: Q01DX009 (ip), vehicle: Klucel (hydroxypropylcellulose) (HPC) 103 % of control | dose: 25.0 mg/kg/injection, schedule: Q04DX003 (ip), vehicle: Klucel (hydroxypropylcellulose) (HPC) 101 % of control | dose: 50.0 mg/kg/injection, schedule: Q01DX009 (ip), vehicle: Klucel (hydroxypropylcellulose) (HPC) 103 % of control | dose: 50.0 mg/kg/injection, schedule: Q04DX003 (ip), vehicle: Klucel (hydroxypropylcellulose) (HPC) 94 % of control | [15] 119 % of control | [1] 97 % of control

COc1ccccc1N=Nc1c(O)n(-c2ccccc2C)c(=S)n(-c2ccc(C)cc2)c1=O
inactive: dose: 100.0 mg/kg/injection, schedule: Q01DX001 (ip), vehicle: Klucel (hydroxypropylcellulose) (HPC) 101 % of control | dose: 200.0 mg/kg/injection, schedule: Q01DX001 (ip), vehicle: Klucel (hydroxypropylcellulose) (HPC) 93 % of control

O=[N+]([O-])c1ccc(N=N/C(=N\Nc2ccccc2)c2ccccc2)cc1
inactive: [15] 89 % of control | [16] 89 % of control | [17] 94 % of control

OCC1OC(n2nnc3c(=S)nc[nH]c32)C(O)C1O (stereo unspecified)
inactive: dose: 3.3 mg/kg/injection, schedule: Q01DX009 (ip), vehicle: saline 101 % of control | dose: 5.0 mg/kg/injection, schedule: Q01DX009 (ip), vehicle: saline 95 % of control | dose: 7.5 mg/kg/injection, schedule: Q01DX009 (ip), vehicle: saline 94 % of control | dose: 11.25 mg/kg/injection, schedule: Q01DX009 (ip), vehicle: saline 101 % of control | dose: 15.0 mg/kg/injection, schedule: Q01DX001 (ip), vehicle: saline 96 % of control | dose: 18.0 mg/kg/injection, schedule: Q01DX009 (ip), vehicle: saline 106 % of control | dose: 25.0 mg/kg/injection, schedule: Q01DX001 (ip), vehicle: saline 98 % of control and 100 % of control | dose: 27.0 mg/kg/injection, schedule: Q01DX009 (ip), vehicle: saline 101 % of control | dose: 38.0 mg/kg/injection, schedule: Q01DX001 (ip), vehicle: saline 94 % of control | dose: 75.0 mg/kg/injection, schedule: Q01DX001 (ip), vehicle: saline 102 % of control | [4] 94 % of control and 98 % of control and 106 % of control | [6] 110 % of control

OCN(CO)c1ccc2c(c1)Cc1cc(F)ccc1-2
inactive: [5] 107 % of control | [7] 98 % of control

O=C(OCCBr)Oc1cccc2ccccc12
inactive: [9] 98 % of control | [10] 93 % of control | [11] 95 % of control

Cc1cccc(C)c1NC(=S)NNC(=O)c1ccncc1
inactive: dose: 100.0 mg/kg/injection, schedule: Q01DX009 (ip), vehicle: saline with Tween-80 97 % of control | [12] 101 % of control | [13] 96 % of control | dose: 400.0 mg/kg/injection, schedule: Q01DX009 (ip), vehicle: saline with Tween-80 100 % of control | [14] 101 % of control

CCCCN(Cc1ccccc1)C(=O)NC(C)(C)C
inactive: [15] 97 % of control | [16] 102 % of control | [17] 97 % of control

CC1(C)OC2COC(c3[nH]nc(C(N)=O)c3C(=O)N=[N+]=[N-])C2O1 (stereo unspecified)
inactive: dose: 100.0 mg/kg/injection, schedule: Q01DX005 (ip), vehicle: saline 101 % of control | dose: 200.0 mg/kg/injection, schedule: Q01DX005 (ip), vehicle: saline 101 % of control

C=CC[Si](CC=C)(CC=C)OCC
inactive: dose: 150.0 mg/kg/injection, schedule: Q01DX001 (ip), vehicle: other 95 % of control | dose: 300.0 mg/kg/injection, schedule: Q01DX001 (ip), vehicle: other 101 % of control
